Values of other authors as cited in patent US20040054006A1 (priority 1999, published 2004).

How the values were obtained:
[1] = intravenous injection, up to 8 grams/day, patients with cardiac diseases
[2] = tested on: creatine kinase; conditions: forward reaction, both in vitro and in vivo
[3] = feeding animals cyclocreatine, e.g. 1% dietary
[4] = fed to mice, rats and chicks
[5] = newly hatched chicks, diet containing 1% cyclocreatine
[6] = 1% dietary cyclocreatine
[7] = rats, dietary 1% cyclocreatine
[8] = mice, up to 1% of diet for 2 weeks or for over 4 weeks

Compound | adverse side effects [1] | phosphorylation by creatine kinase [2] | accumulation in different organs [3] | tolerability [4] | growth versus control chicks [5] | mortality ([5]; in the presence of antibiotics) | antiviral activity [6] | tissue uptake [7] | gross adverse effects [8]
N-phosphoryl creatine [Creatine phosphate] | no adverse side effects | – | – | – | – | – | – | – | –
NC1=NCCN1CC(=O)O [cyclocreatine, 1-carboxymethyl-2-iminoimidazolidine] | – | phosphorylated efficiently | accumulation of cyclocreatine in different organs in mM concentrations | well-tolerated | grew more slowly than control chicks | without significant mortality | antiviral activity of cyclocreatine is observed | taken up by muscle, heart and brain | without gross adverse effects
